Measured values as given in ChEMBL document CHEMBL1926546, “New N-methylpiperazinyl derivatives of bicyclic antiprotozoal compounds” (Eur J Med Chem, 2012).
Calls of active or inactive are those of the source. The calls are words filed in the database; no cut-off is given here.

Assays:
Plasmodium falciparum = assay: Antiplasmodial activity against chloroquine and pyrimethamine-resistant Plasmodium falciparum K1 assessed as [3H]hypoxanthine incorporation after 48 hrs by liquid scintillation counter; type: functional, organism-based
[1] = tested on: Trypanosoma brucei rhodesiense; assay: Antitrypanosomal activity against Trypanosoma brucei rhodesiense STIB900 bloodstream forms after 72 hrs by serial dilution Alamar blue assay; type: functional, organism-based; conditions: STIB900, 72 h
L6 = assay: Cytotoxicity against rat L6 cells; type: cell-based
[2] = Selectivity index, ratio of IC50 for rat L6 cells to IC50 for Trypanosoma brucei rhodesiense STIB900; type: toxicity, cell-based; conditions: L6 cells (versus Trypanosoma brucei rhodesiense STIB900), read-out: Ratio IC50
[3] = Selectivity index, ratio of IC50 for rat L6 cells to IC50 for chloroquine and pyrimethamine-resistant Plasmodium falciparum K1; type: toxicity, cell-based; conditions: L6 cells (versus Plasmodium falciparum K1), read-out: Ratio IC50
Plasmodium berghei [4] = assay: Antimalarial activity against Plasmodium berghei ANKA infected in albino mouse assessed as inhibition of parasitemia at 30 to 50 mg/kg, ip administered as single dose post-infection measured after 24 hrs by Giemsa staining-based microscopy; type: functional; conditions: dose mg/kg 30-50; route intraperitoneal
Plasmodium berghei [5] = assay: Antimalarial activity against Plasmodium berghei ANKA infected in albino mouse assessed as prolongation of survival time at 30 to 50 mg/kg, ip administered as single dose post infection (reference value: 6.7 days); type: functional; conditions: dose mg/kg 30-50; route intraperitoneal
[6] = tested on: Trypanosoma brucei brucei; assay: […] activity against Trypanosoma brucei brucei STIB 795 infected in NMRI mouse assessed as reduction in parasitemia compound administered on day 3 and day 6 post infection measured after 24 hrs; type: functional, organism-based
[7] = tested on: Trypanosoma brucei brucei; assay: […] activity against Trypanosoma brucei brucei STIB 795 infected in NMRI mouse assessed as reduction in parasitemia compound administered on day 3 and day 6 post infection measured on day 10; type: functional, organism-based

C[C@@H]1CC[C@H]2[C@@H](C)C(=O)O[C@@H]3O[C@@]4(C)CC[C@@H]1[C@]32OO4 [ARTEMISININ]
IC50 (Plasmodium falciparum): 6.4 nM

CN1CCN(CCC(=O)OC2CC3(N(C)C)CC(c4ccccc4)C2C(c2ccccc2)C3)CC1 (racemic)
IC50 [1]: 0.21 µM
IC50 (L6): 31.1 µM
selectivity ratio [2]: 148
IC50 (Plasmodium falciparum): 460 nM
selectivity ratio [3]: 67.7

CN1CCN(C23CCNC(C(c4ccccc4)C2)C(c2ccccc2)C3)CC1 (racemic)
IC50 [1]: 0.38 µM
IC50 (L6): 96.9 µM
selectivity ratio [2]: 255
IC50 (Plasmodium falciparum): 1500 nM
selectivity ratio [3]: 64.6

CN1CCN(CCC(=O)NC2CC3(N4CCN(C)CC4)CC(c4ccccc4)C2C(c2ccccc2)C3)CC1 (racemic)
IC50 [1]: 3.3 µM
IC50 (L6): 67.9 µM
selectivity ratio [2]: 20.6
IC50 (Plasmodium falciparum): 550 nM
selectivity ratio [3]: 123

CN1CCN(CCCC(=O)OC2CC3(N4CCCCC4)CC(c4ccccc4)C2C(c2ccccc2)C3)CC1 (racemic)
IC50 [1]: 0.16 µM
IC50 (L6): 22.3 µM
selectivity ratio [2]: 139
IC50 (Plasmodium falciparum): 50 nM
selectivity ratio [3]: 446

CN1CCN(CCCN2CCC3(N4CCCC4)CC(c4ccccc4)C2C(c2ccccc2)C3)CC1 (racemic)
IC50 [1]: 6.99 µM
IC50 (L6): 27.4 µM
selectivity ratio [2]: 3.93
IC50 (Plasmodium falciparum): 270 nM
selectivity ratio [3]: 102
inhibition (INH) (Plasmodium berghei [4]): 39%
MST (Plasmodium berghei [5]): 7.7 days

CCN(CC)CCC(=O)OC1CC2(N(C)C)CC(c3ccccc3)C1C(c1ccccc1)C2 (stereo not drawn)
selectivity ratio [2]: 215
selectivity ratio [3]: 54.9

CN1CCN(CCN2CCC3(N(C)C)CC(c4ccccc4)C2C(c2ccccc2)C3)CC1 (racemic)
IC50 [1]: 13.5 µM
IC50 (L6): 70.3 µM
selectivity ratio [2]: 5.19
IC50 (Plasmodium falciparum): 520 nM
selectivity ratio [3]: 135

CN1CCN(CCCC(=O)OC2CC3(N(C)C)CC(c4ccccc4)C2C(c2ccccc2)C3)CC1 (racemic)
IC50 [1]: 0.08 µM
IC50 (L6): 19.9 µM
selectivity ratio [2]: 248
IC50 (Plasmodium falciparum): 240 nM
selectivity ratio [3]: 82.7

CN1CCN(CCCN2CCC3(N(C)C)CC(c4ccccc4)C2C(c2ccccc2)C3)CC1 (racemic)
IC50 [1]: 11.5 µM
IC50 (L6): 54.5 µM
selectivity ratio [2]: 4.74
IC50 (Plasmodium falciparum): 510 nM
selectivity ratio [3]: 107

CN1CCN(CCCN2CCC3(N4CCCCC4)CC(c4ccccc4)C2C(c2ccccc2)C3)CC1 (racemic)
IC50 [1]: 17.6 µM
IC50 (L6): 62.5 µM
selectivity ratio [2]: 3.55
IC50 (Plasmodium falciparum): 110 nM
selectivity ratio [3]: 568

CN1CCN(CCN2CCC3(N4CCCCC4)CC(c4ccccc4)C2C(c2ccccc2)C3)CC1 (racemic)
IC50 [1]: 43.7 µM
IC50 (L6): 127 µM
selectivity ratio [2]: 2.91
IC50 (Plasmodium falciparum): 300 nM
selectivity ratio [3]: 424

Nc1nc(N)nc(Nc2ccc([As]3SCC(CO)S3)cc2)n1 (stereo not drawn) [MELARSOPROL]
IC50 [1]: 0.009 µM
selectivity ratio [2]: 1940

CN1CCN(CCC(=O)OC2CC3(N4CCCC4)CC(c4ccccc4)C2C(c2ccccc2)C3)CC1 (racemic)
IC50 [1]: 0.45 µM
IC50 (L6): 21.3 µM
selectivity ratio [2]: 47.4
IC50 (Plasmodium falciparum): 260 nM
selectivity ratio [3]: 82

CN1CCN(CCCN2CCC3(N4CCN(C)CC4)CC(c4ccccc4)C2C(c2ccccc2)C3)CC1 (racemic)
IC50 [1]: 6.67 µM
IC50 (L6): 47.8 µM
selectivity ratio [2]: 7.16
IC50 (Plasmodium falciparum): 250 nM
selectivity ratio [3]: 191

CN1CCN(CCC(=O)OC2CC3(N4CCCCC4)CC(c4ccccc4)C2C(c2ccccc2)C3)CC1 (racemic)
IC50 [1]: 0.087 µM
IC50 (L6): 23.5 µM
selectivity ratio [2]: 271
IC50 (Plasmodium falciparum): 60 nM
selectivity ratio [3]: 392
Activity [6]: Active
Activity [7]: Active

CN1CCN(CC(=O)NC2CC3(N4CCN(C)CC4)CC(c4ccccc4)C2C(c2ccccc2)C3)CC1 (racemic)
IC50 [1]: 2.06 µM
IC50 (L6): 42.1 µM
selectivity ratio [2]: 20.4
IC50 (Plasmodium falciparum): 620 nM
selectivity ratio [3]: 67.9

CN1CCN(CCC(=O)N2CCC3(N4CCN(C)CC4)CC(c4ccccc4)C2C(c2ccccc2)C3)CC1 (racemic)
IC50 [1]: 3.62 µM
IC50 (L6): 161 µM
selectivity ratio [2]: 44.5
IC50 (Plasmodium falciparum): 1950 nM
selectivity ratio [3]: 82.5

CN1CCN(CCCC(=O)OC2CC3(N4CCCC4)CC(c4ccccc4)C2C(c2ccccc2)C3)CC1 (racemic)
IC50 [1]: 0.15 µM
IC50 (L6): 10.2 µM
selectivity ratio [2]: 67.7
IC50 (Plasmodium falciparum): 120 nM
selectivity ratio [3]: 84.7

c1ccc(C2CC3(N4CCCCC4)CCN(CCCN4CCCCC4)C2C(c2ccccc2)C3)cc1 (stereo not drawn)
IC50 [1]: 18.4 µM
selectivity ratio [2]: 7.5

CN1CCN(CCN2CCC3(N4CCCC4)CC(c4ccccc4)C2C(c2ccccc2)C3)CC1 (racemic)
IC50 [1]: 6.35 µM
IC50 (L6): 50.3 µM
selectivity ratio [2]: 7.93
IC50 (Plasmodium falciparum): 23 nM
selectivity ratio [3]: 2190
inhibition (INH) (Plasmodium berghei [4]): 39%
MST (Plasmodium berghei [5]): 8.3 days
